Measurements from article PMC10967822, “Antimicrobial Indole-3-Carboxamido-Polyamine Conjugates Target Bacterial Membranes and Are Antibiotic Potentiators” (Biomolecules, 2024).
Values after ≈ are worked out from the molar mass of the structure shown. Where two headings read alike, the source gives them in different places. Marks after values point to notes of the source that are not given here.

Tests used:
[1] = Cytotoxicity assay (resazurin); assay type: cell-based; conditions: human, HEK293 cells, mean n = 2
S. aureus ATCC 25923 = assay: MIC, broth dilution, S. aureus; assay type: cell-based, Staphylococcus aureus; conditions: Staphylococcus aureus, ATCC25923; S. aureus ATCC 25923, 18 h; read-out: MIC Sa
MRSA ATCC 43300 = assay: MIC, broth microdilution (CO-ADD), MRSA; assay type: cell-based, methicillin-resistant S. aureus; conditions: Staphylococcus aureus, read-out: MIC MRSA
P. aeruginosa ATCC 27853 [2] = assay: MIC, broth dilution, P. aeruginosa; assay type: cell-based, Pseudomonas aeruginosa; conditions: P. aeruginosa ATCC 27853, 18 h, read-out: MIC Pa
E. coli ATCC 25922 [3] = assay: MIC, broth dilution, E. coli; assay type: cell-based, Escherichia coli; conditions: E. coli ATCC 25922, 18 h
A. baumannii ATCC 19606 = assay: MIC, broth microdilution (CO-ADD), A. baumannii; assay type: cell-based, Acinetobacter baumannii
C. albicans ATCC 90028 = assay: Antifungal MIC (CO-ADD), C. albicans; assay type: cell-based; conditions: Candida albicans, ATCC90028, top dose 32 µg/mL
Method: (§1) For the antifungal assay, fungi strains were cultured for 3 days on YPD agar at 30 °C. A yeast suspension of 1 × 10^6 to 5 × 10^6 CFU/mL was prepared from five colonies. These stock suspensions were diluted with a yeast nitrogen base (YNB) (Becton Dickinson, 233520, New South Wales, Australia) broth to a final concentration of 2.5 × 10^3 CFU/mL. […] The plates were covered and incubated at 35 °C for 36 h without shaking. C. albicans MICs were determined by measuring the absorbance at OD530. For C. neoformans, resazurin was added at a 0.006% final concentration to each well and incubated for a further 3 h before the MICs were determined by measuring the absorbance at OD570–600. […] Fluconazole was used as a positive fungal inhibitor standard for C. albicans and C. neoformans. […] The quality control (QC) of the assays was determined by the antimicrobial controls and the Z′-factor (using positive and negative controls).

P. aeruginosa ATCC 27853 [4] = assay: Doxycycline potentiation against P. aeruginosa; assay type: cell-based, Pseudomonas aeruginosa; conditions: doxycycline at 2 µg/mL (4.5 µM); for Dox/Pa fold-change (intrinsic MIC / combination MIC): P. aeruginosa ATCC 27853; for Dox/Pa: concentration required to restore doxycycline activity (combination MIC): P. aeruginosa ATCC 27853, mean n = 3
Excerpt: (§2) These measurements were independently repeated in triplicate.

E. coli ATCC 25922 [5] = assay: Erythromycin potentiation against E. coli; assay type: cell-based, Escherichia coli; conditions: erythromycin at 2 µg/mL (2.7 µM); for Erythro/Ec fold-change (intrinsic MIC / combination MIC): E. coli; for Erythro/Ec: concentration required to restore erythromycin activity (combination MIC): mean n = 3
Excerpt: as §2

human red blood cells = assay: Hemolytic assay; assay type: cell-based; conditions: 10% hemolytic activity, mean n = 2
Method: Human whole blood was washed three times with three volumes of 0.9% NaCl and then resuspended in the same solution to a concentration of 0.5 × 10^8 cells/mL, as determined by the manual cell count in a Neubauer hemocytometer. The washed cells were then added to the 384-well compound-containing plates for a final volume of 50 μL. After a 10 min shake on a plate shaker, the plates were then incubated for 1 h at 37 °C. After incubation, the plates were centrifuged at 1000× g for 10 min to pellet cells and debris; 25 μL of the supernatant was then transferred to a polystyrene 384-well assay plate. Hemolysis was determined by measuring the supernatant absorbance at […] (OD405). The absorbance was measured using a Tecan M1000 Pro monochromator plate reader. HC10 and HC50 (concentrations at 10% and 50% hemolysis, respectively) were calculated by a curve fitting the inhibition values vs. log (concentration) using a sigmoidal dose–response function with variable fitting values for the top, bottom, and slope.

[6] = test system: K. pneumoniae ATCC 700603; assay: MIC, broth microdilution (CO-ADD), K. pneumoniae; conditions: top dose 32 µg/mL
[7] = test system: C. neoformans ATCC 208821; assay: Antifungal MIC (CO-ADD), C. neoformans; assay type: cell-based; conditions: Cryptococcus neoformans, ATCC208821, top dose 32 µg/mL
Method: as §1

[8] = MRSA ATCC 43300, top dose 32 µg/mL
[9] = Pseudomonas aeruginosa, ATCC27853
[10] = Acinetobacter baumannii, ATCC19606, top dose 32 µg/mL

| Compound | IC50 at 20 h [1] | MIC (S. aureus ATCC 25923) | MIC (MRSA ATCC 43300; [8]) | MIC (P. aeruginosa ATCC 27853 [2]; [9]) | MIC (E. coli ATCC 25922 [3]; Escherichia coli, ATCC25922) | MIC (A. baumannii ATCC 19606; [10]) | MIC (C. albicans ATCC 90028) | Dox/Pa fold-change (intrinsic MIC / combination MIC) (P. aeruginosa ATCC 27853 [4]) | Dox/Pa: concentration required to restore doxycycline activity (combination MIC) (P. aeruginosa ATCC 27853 [4]) | Erythro/Ec fold-change (intrinsic MIC / combination MIC) (E. coli ATCC 25922 [5]) | Erythro/Ec: concentration required to restore erythromycin activity (combination MIC) (E. coli ATCC 25922 [5]) | Hemolysis HC10 (human red blood cells) | MIC Kp [6] | MIC (P. aeruginosa ATCC 27853 [2]) | MIC (E. coli ATCC 25922 [3]) | MIC (A. baumannii ATCC 19606; top dose 32 µg/mL) | MIC (MRSA ATCC 43300) | MIC [7] |
| --- | --- | --- | --- | --- | --- | --- | --- | --- | --- | --- | --- | --- | --- | --- | --- | --- | --- | --- |
| CC/C(=C(\c1ccccc1)c1ccc(OCCN(C)C)cc1)c1ccccc1 [tamoxifen, reference compound] | 24 µM |  |  |  |  |  |  |  |  |  |  |  |  |  |  |  |  |  |
| COc1cccc2c(C(=O)NCCCNCCCCNCCCNC(=O)c3c[nH]c4c(OC)cccc34)c[nH]c12 [Compound 17a] | > 41 µM | 129 µM (≈ 70.8 µg/mL) | 20.6 µM (≈ 11.3 µg/mL) | > 257 µM | > 257 µM | > 41 µM | > 41 µM | > 2 fold | 129 µM | 1 fold | > 257 µM | >41 µM | >41 µM |  |  |  |  |  |
| Colistin [reference compound] |  |  |  |  |  |  |  |  |  |  |  |  | 0.2 µM | 1 µM | 2 µM | 0.2 µM |  |  |
| COc1cccc2c(C(=O)NCCCNCCCCCCNCCCNC(=O)c3c[nH]c4c(OC)cccc34)c[nH]c12 [Compound 17b] | > 40 µM | 124 µM (≈ 71.5 µg/mL) | > 40 µM | > 248 µM | 248 µM (≈ 143 µg/mL) | > 40 µM | > 40 µM | 1 fold | > 248 µM | 1 fold | > 248 µM | >40 µM | >40 µM |  |  |  |  |  |
| CN[C@H](CC(C)C)C(=O)N[C@H]1C(=O)N[C@@H](CC(N)=O)C(=O)N[C@H]2C(=O)N[C@H]3C(=O)N[C@H](C(=O)N[C@H](C(=O)O)c4cc(O)cc(O)c4-c4cc3ccc4O)[C@H](O)c3ccc(c(Cl)c3)Oc3cc2cc(c3O[C@@H]2O[C@H](CO)[C@@H](O)[C@H](O)[C@H]2O[C@H]2C[C@](C)(N)[C@H](O)[C@H](C)O2)Oc2ccc(cc2Cl)[C@H]1O [Vancomycin, reference compound] |  |  |  |  |  |  |  |  |  |  |  |  |  |  |  |  | 0.7 µM (≈ 1.01 µg/mL) |  |
| OC(Cn1cncn1)(Cn1cncn1)c1ccc(F)cc1F [Fluconazole, reference compound] |  |  |  |  |  |  | 0.4 µM (≈ 0.123 µg/mL) |  |  |  |  |  |  |  |  |  |  | 26 µM (≈ 7.96 µg/mL) |
| [H]/N=C(/N)N[C@H]1[C@H](O)[C@@H](O)[C@H](O[C@@H]2O[C@@H](C)[C@](O)(C=O)[C@H]2O[C@@H]2O[C@@H](CO)[C@H](O)[C@@H](O)[C@@H]2NC)[C@@H](N/C(N)=N\[H])[C@@H]1O [Streptomycin, reference compound] |  | 21.5 µM (≈ 12.5 µg/mL) |  | 21.5 µM (≈ 12.5 µg/mL) | 21.5 µM (≈ 12.5 µg/mL) |  |  |  |  |  |  |  |  |  |  |  |  |  |
| O=C(NCCCNCCCCCCCCNCCCNC(=O)c1c[nH]c2ccccc12)c1c[nH]c2ccccc12.O=C(O)C(F)(F)F.O=C(O)C(F)(F)F [Compound 12d] | > 41 µM | 64.7 µM | ≤ 0.32 µM | > 259 µM | 32.4 µM | > 41 µM | > 41 µM | > 8 fold | 32.3 µM |  |  | >41 µM | >41 µM |  |  |  |  | ≤ 0.32 µM |
| COc1ccc2[nH]cc(C(=O)NCCCNCCCCCCCNCCCNC(=O)c3c[nH]c4ccc(OC)cc34)c2c1.O=C(O)C(F)(F)F.O=C(O)C(F)(F)F [Compound 14c] | > 39 µM | 122 µM | > 39 µM | > 244 µM | > 244 µM | > 39 µM | > 39 µM | > 4 fold | 61.1 µM | > 1 fold | 244 µM | >39 µM | >39 µM |  |  |  |  |  |
| O=C(NCCCNCCCCCCNCCCNC(=O)c1c[nH]c2c(F)cccc12)c1c[nH]c2c(F)cccc12 [Compound 16b] | > 41 µM | 256 µM (≈ 141 µg/mL) | > 41 µM | > 256 µM | 256 µM (≈ 141 µg/mL) | > 41 µM | > 41 µM | > 4 fold | 64.0 µM | 2 fold | 128 µM | >41 µM | >41 µM |  |  |  |  |  |
| Cc1cccc2c(C(=O)NCCCNCCCCNCCCNC(=O)c3c[nH]c4c(C)cccc34)c[nH]c12 [Compound 18a] | > 43 µM | > 269 µM | 21.5 µM (≈ 11.1 µg/mL) | 269 µM (≈ 139 µg/mL) | > 269 µM | > 43 µM | > 43 µM | 1 fold | 269 µM | 1 fold | > 269 µM | >43 µM | >43 µM |  |  |  |  |  |
| O=C(NCCCNCCCCNCCCNC(=O)c1c[nH]c2c(F)cccc12)c1c[nH]c2c(F)cccc12 [Compound 16a] | > 43 µM | > 266 µM | > 43 µM | 266 µM (≈ 140 µg/mL) | > 266 µM | > 43 µM | > 43 µM | 1 fold | 266 µM | 1 fold | > 266 µM | >43 µM | >43 µM |  |  |  |  |  |
| O=C(N[C@H](CO)[C@H](O)c1ccc([N+](=O)[O-])cc1)C(Cl)Cl [Chloramphenicol, reference compound] |  | 1.5 to 3 µM (≈ 0.485 to 0.969 µg/mL) |  |  |  |  |  |  |  |  |  |  |  |  |  |  |  |  |
| C[C@H]1c2cccc(O)c2C(=O)C2=C(O)[C@]3(O)C(=O)C(C(N)=O)=C(O)[C@@H](N(C)C)[C@@H]3[C@@H](O)[C@@H]21 [doxycycline, reference compound] |  |  |  | 90 µM (≈ 40 µg/mL) |  |  |  |  |  |  |  |  |  |  |  |  |  |  |
| COc1ccc2[nH]cc(C(=O)NCCCNCCCCNCCCNC(=O)c3c[nH]c4ccc(OC)cc34)c2c1 [Compound 14a] | > 41 µM | 257 µM (≈ 141 µg/mL) | 10.3 µM (≈ 5.65 µg/mL) | > 257 µM | 257 µM (≈ 141 µg/mL) | > 41 µM | > 41 µM | > 4 fold | 64.4 µM | 1 fold | 257 µM | >41 µM | >41 µM |  |  |  |  |  |
| CC[C@H]1OC(=O)[C@H](C)[C@@H](O[C@H]2C[C@@](C)(OC)[C@@H](O)[C@H](C)O2)[C@H](C)[C@@H](O[C@@H]2O[C@H](C)C[C@H](N(C)C)[C@H]2O)[C@](C)(O)C[C@@H](C)C(=O)[C@H](C)[C@@H](O)[C@]1(C)O [erythromycin, reference compound] |  |  |  |  | 174 µM (≈ 128 µg/mL) |  |  |  |  |  |  |  |  |  |  |  |  |  |
| O=C(NCCCNCCCCNCCCNC(=O)c1c[nH]c2ccccc12)c1c[nH]c2ccccc12 [Compound 12a] | > 45 µM | 69.8 µM (≈ 34.1 µg/mL) | 22.3 µM (≈ 10.9 µg/mL) | > 279 µM | 139 µM (≈ 67.9 µg/mL) | > 45 µM | > 45 µM | > 8 fold | 34.9 µM | 4 fold | 34.9 µM | >45 µM | >45 ^j µM |  |  |  |  |  |
